Assays:
PSG-1 gene = PSG-1 gene expression in placental trophoblastic cells, real-time RT-PCR; type: cell-based, human; conditions: for expression level of PSG-1 gene relative to non-added section: after 72 hours
Method: The influence upon these two genes (PSG-1 and CSH-1) of 1,5-AG was analyzed by a real-time RT-PCR method using placental trophoblastic cells. As a preliminary study, the expression level of PSG-1 was analyzed at three concentrations (1 μg/mL or less, 40 μg/mL and 160 μg/mL of 1,5-AG) and for three sampling times (3, 24 and 72 hours). A test was conducted by the following method.
Human placental villous trophoblastic cells (ScienCell Research Laboratories)
The human placental villous trophoblastic cells were initiated in a T-75 flask by using a trophoblast medium (to be simply referred to as “medium” hereinafter) to be cultured in a CO2 incubator (5% CO2, 37° C., moistening). Medium exchange was carried out every 2 days, the cells were collected when 80% confluence was reached, and cells having a passage number of 2 were used in this test. Stated more specifically, after the cells were washed with D-PBS (−), the cells were separated by using 0.25% trypsin-EDTA, and a medium was added to neutralize trypsin. Then, the supernatant was removed by centrifugation (180 g, 5 minutes), a new medium was added to stir the cells, the number of the cells was counted by using a corpuscle calculating board, and a medium was used to achieve a target concentration (4.0×10^3 cells/100 μL).
The sample was added to mediums to achieve 1,5-AG final concentrations of 40 μg/mL and 160 μg/mL. When the final concentration was not more than 1 μg/mL, 1,5-AG was not added. Stated more specifically, a 1,5-AG aqueous solution having a concentration of 40 mg/mL was added to a test medium in a ratio of 1/1000 or 1/250 to achieve a final concentration of 40 μg/mL or 160 μg/mL, and the 1,5-AG solution was sterilized with a filter to be used in the test. […]
The PCR reaction was carried out under the conditions of 95° C.·30 sec−(95° C.·10 sec−60° C.·30 sec)×45 cycles−95° C.·15 sec−55° C.·15 sec−95° C.·15 sec, and the dissociation curve of the PCR product was obtained after the end of the PCR reaction. The relative expression level was calculated by the ? […]

type 2 diabetes model = conditions: in vivo; cited from earlier work
PC12 cells = assay: Fluorescence determination of number of living cells and amount of neurite outgrowth (neurite outgrowth staining kit); type: cell-based
Method: A test was carried out at five concentrations (1.6, 8, 40, 200 and 1,000 μg/mL) of 1,5-AG. Stated more specifically, a 1,5-AG aqueous solution having a concentration of 100 mg/mL was diluted with water to prepare 100 times-concentrated solutions having concentrations of 0.16, 0.8, 4, 20 and 100 mg/mL. These 100 times-concentrated solutions were each added to a test medium in a ratio of 1/100 to achieve final concentrations of 1.6, 8, 40, 200 and 1,000 μg/mL and sterilized with a filter to be used in the test. As a negative control, water was added to a medium in a ratio of 1/100 and sterilized with a filter to be used in the test. As a positive control, a test medium containing a 100 ng/mL nerve growth factor (NGF) was used.
A growth medium was used to adjust the cells to a concentration of 2.0×10^3 cells/100 μL/well, and the cells were scattered in a collagen-coated 96-well plate to be cultured in a CO2 incubator (5% CO2, 37° C., moistening) for 24 hours. After culture, the medium was replaced by a sample-containing test medium (100 μL), and the cells were cultured in a CO2 incubator for 96 hours. After the end of culture, an image of the cells in each well was taken with a phase difference microscope and used for the measurement of nuetrite outgrowth rate, and nuclei and cytoplasms were fluorescent dyed by using a neurite outgrowth staining kit to measure the number of living cells and the amount of neurite outgrowth. These procedures were carried out five times each.
After the end of culture, the number of living cells and the amount of neurite outgrowth were determined by using a neurite outgrowth staining kit. Stated more specifically, after the medium was removed, 100 μL of a staining solution (prepared by diluting Cell Viability Indicator and Cell Membrane Stain attached to the kit with calcium magnesium-containing PBS 1,000 times) was added to each well to incubate the cells at 37° C. for 20 minutes. After incubation, the staining solution was removed, 100 μL of a background suppression solution (prepared by diluting the background suppression dye attached to the kit with calcium magnesium-containing PBS 100 times) was added to each well so as to measure fluorescence intensity with a micro plate reader (measurement of the number of living cells: excitation wavelength of 495 nm, fluorescence wavelength of 515 nm, measurement of the amount of neurite outgrowth: excitation wavelength of 555 nm, fluorescent wavelength of 565 nm).

insulinoma cell lines = conditions: cited from earlier work

SMILES: OC[C@H]1OC[C@H](O)[C@@H](O)[C@@H]1O [1,5-AG, 1,5-anhydro-D-glucitol]
- expression level of PSG-1 gene relative to non-added section (PSG-1 gene; 40 μg/mL 1,5-AG): 1.54 times
- expression level of PSG-1 gene relative to non-added section (PSG-1 gene; 160 μg/mL 1,5-AG): 1.62 times
- expression level of PSG-1 gene over treatment time (PSG-1 gene; 1,5-AG added sections, 3, 24 and 72 hours): rose in proportion to the sample treatment time
- anti-diabetic effect (type 2 diabetes model): anti-diabetic effect
- amount of neurite outgrowth as compared with the non-added section (PC12 cells; 8 μg/mL section): 113.4%
- amount of neurite outgrowth as compared with the non-added section (PC12 cells; 40 μg/mL section): 113.3%
- number of living cells (PC12 cells; all test sections versus negative control, 96 hours): about the same as that of a negative control
- secretion of insulin (insulinoma cell lines): promotes the secretion of insulin

Source: patent US20170223976A1, “MODIFIED MILK POWDER CONTAINING 1,5-ANHYDRO-D-GLUCITOL” (NIHON STARCH CO., LTD., priority 2015, published 2017)
